Laboratory results taken from patent US12559492B2, “BRAF degraders” (C4 Therapeutics, Inc., priority 2020, dated 2026).

Target: BRAF^V600E protein (Homo sapiens, UniProt P15056, V600E)
Assay: HiBiT cellular BRAF V600E degradation assay
Assay type: cell-based
Conditions: 24 h incubation; for DC50: A375.10 cells (HiBiT tag knocked in at N-terminal of BRAF V600E), concentration at which 50% of total cellular BRAF V600E is degraded; for Emax: A375.10 cells, Emax = amount of residual protein remaining in the cell after compound treatment, read-out: HiBit 24 h Emax

BRAF^V600E protein, sequence (P15056 whole entry V600E): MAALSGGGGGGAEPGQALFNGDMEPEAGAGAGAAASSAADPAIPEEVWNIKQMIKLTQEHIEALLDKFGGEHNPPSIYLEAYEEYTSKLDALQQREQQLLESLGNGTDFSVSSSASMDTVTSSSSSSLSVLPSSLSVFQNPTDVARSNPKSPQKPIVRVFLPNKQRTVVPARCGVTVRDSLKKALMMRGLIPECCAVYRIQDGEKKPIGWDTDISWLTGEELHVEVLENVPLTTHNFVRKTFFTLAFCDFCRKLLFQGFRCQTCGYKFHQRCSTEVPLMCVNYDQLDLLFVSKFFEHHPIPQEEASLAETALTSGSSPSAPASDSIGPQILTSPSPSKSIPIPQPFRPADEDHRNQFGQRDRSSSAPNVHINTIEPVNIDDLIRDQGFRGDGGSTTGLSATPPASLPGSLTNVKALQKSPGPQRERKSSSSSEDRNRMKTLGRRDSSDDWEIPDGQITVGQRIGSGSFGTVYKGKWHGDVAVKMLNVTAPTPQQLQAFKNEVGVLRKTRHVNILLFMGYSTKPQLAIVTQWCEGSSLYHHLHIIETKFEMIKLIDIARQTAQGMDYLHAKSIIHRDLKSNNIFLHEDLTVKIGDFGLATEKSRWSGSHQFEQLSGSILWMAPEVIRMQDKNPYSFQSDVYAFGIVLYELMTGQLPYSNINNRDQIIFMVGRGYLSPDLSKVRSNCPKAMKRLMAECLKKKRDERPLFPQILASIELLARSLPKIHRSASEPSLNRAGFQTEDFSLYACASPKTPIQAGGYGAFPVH

Row | Structure (SMILES) | DC50 [µM] | Emax [%]
1 | CCN(C)S(=O)(=O)Nc1ccc(F)c(C(=O)c2c[nH]c3ncc(-c4ccc(N5CCN(C(=O)CC6(O)CCN(c7cc(Cl)c(N8CCC(=O)NC8=O)cc7Cl)CC6)CC5)nc4)cc23)c1F [Example 218, 5-[6-[4-[2-[1-[2,5-dichloro-4-(2,4-dioxohexahydropyrimidin-1-yl)phenyl]-4-hydroxy-4-piperidyl]acetyl]piperazin-1-yl]-3-pyridyl]-3-[3-[[ethyl(methyl)sulfamoyl]amino]-2,6-difluoro-benzoyl]-1H-pyrrolo[2,3-b]pyridine] | 0.0041 | 6.24
2 | CCN(C)S(=O)(=O)Nc1ccc(F)c(C(=O)c2c[nH]c3ncc(-c4ccc(N5CCN(C(=O)CC6(O)CCN(c7cc(Cl)c(N8CCC(=O)NC8=O)cc7F)CC6)CC5)nc4)cc23)c1F [Example 219, 5-[6-[4-[2-[1-[5-chloro-4-(2,4-dioxohexahydropyrimidin-1-yl)-2-fluoro-phenyl]-4-hydroxy-4-piperidyl]acetyl]piperazin-1-yl]-3-pyridyl]-3-[3-[[ethyl(methyl)sulfamoyl]amino]-2,6-difluoro-benzoyl]-1H-pyrrolo[2,3-b]pyridine] | 0.00165 | 6.11
3 | CCN(C)S(=O)(=O)Nc1ccc(F)c(C(=O)c2c[nH]c3ncc(-c4ccc(N5CCN(C(=O)CC6(O)CCN(c7cc(F)c(N8CCC(=O)NC8=O)cc7F)CC6)CC5)nc4)cc23)c1F [Example 220, 5-[6-[4-[2-[1-[4-(2,4-dioxohexahydropyrimidin-1-yl)-2,5-difluoro-phenyl]-4-hydroxy-4-piperidyl]acetyl]piperazin-1-yl]-3-pyridyl]-3-[3-[[ethyl(methyl)sulfamoyl]amino]-2,6-difluoro-benzoyl]-1H-pyrrolo[2,3-b]pyridine] | 0.00145 | 7.62
4 | CCN(C)S(=O)(=O)Nc1ccc(F)c(C(=O)c2c[nH]c3ncc(-c4cc(F)c(N5CCN(C(=O)CC6(O)CCN(c7ccc(NC8CCC(=O)NC8=O)cc7F)CC6)CC5)cc4F)cc23)c1F (stereo not drawn) [Example 221, 5-[4-[4-[2-[1-[4-[(2,6-dioxo-3-piperidyl)amino]-2-fluoro-phenyl]-4-hydroxy-4-piperidyl]acetyl]piperazin-1-yl]-2,5-difluoro-phenyl]-3-[3-[[ethyl(methyl)sulfamoyl]amino]-2,6-difluoro-benzoyl]-1H-pyrrolo[2,3-b]pyridine] | 0.00565 | 9.12
5 | CCN(C)S(=O)(=O)Nc1ccc(F)c(C(=O)c2c[nH]c3ncc(-c4ccc(N5CCN(C(=O)CN6CCC(c7ccc(OC8CCC(=O)NC8=O)cc7)CC6)CC5)nc4)cc23)c1F (stereo not drawn) [Example A1, 5-[6-[4-[2-[4-[4-(2,6-Dioxopiperidin-3-yl)oxyphenyl]piperidin-1-yl]acetyl]piperazin-1-yl]pyridin-3-yl]-3-[3-[[ethyl(methyl)sulfamoyl]amino]-2,6-difluorobenzoyl]-1H-pyrrolo[2,3-b]pyridine] | 0.017 | 13
6 | CCN(C)S(=O)(=O)Nc1ccc(F)c(C(=O)c2c[nH]c3ncc(-c4ccc(N5CCN(C(=O)CCCN6CCC(c7ccc(OC8CCC(=O)NC8=O)cc7)CC6)CC5)nc4)cc23)c1F (stereo not drawn) [Example A2, 5-[6-[4-[4-[4-[4-(2,6-Dioxopiperidin-3-yl)oxyphenyl]piperidin-1-yl]butanoyl]piperazin-1-yl]pyridin-3-yl]-3-[3-[[ethyl(methyl)sulfamoyl]amino]-2,6-difluorobenzoyl]-1H-pyrrolo[2,3-b]pyridine] | 0.066 | 22
7 | CCN(C)S(=O)(=O)Nc1ccc(F)c(C(=O)c2c[nH]c3ncc(-c4ccc(N5CCN(CC(=O)N6CCC(c7ccc(OC8CCC(=O)NC8=O)cc7)CC6)CC5)nc4)cc23)c1F (stereo not drawn) [Example A3, 5-[6-[4-[2-[4-[4-(2,6-Dioxopiperidin-3-yl)oxyphenyl]piperidin-1-yl]-2-oxoethyl]piperazin-1-yl]pyridin-3-yl]-3-[3-[[ethyl(methyl)sulfamoyl]amino]-2,6-difluorobenzoyl]-1H-pyrrolo[2,3-b]pyridine] | 0.046 | 19
8 | CCN(C)S(=O)(=O)Nc1ccc(F)c(C(=O)c2c[nH]c3ncc(-c4ccc(CN5CCN(C(=O)N6CCN(c7ccc(OC8CCC(=O)NC8=O)cc7)CC6)CC5)cc4)cc23)c1F (stereo not drawn) [Example A4, 5-[4-[[4-[4-[4-(2,6-Dioxopiperidin-3-yl)oxyphenyl]piperazine-1-carbonyl]piperazin-1-yl]methyl]phenyl]-3-[3-[[ethyl(methyl)sulfamoyl]amino]-2,6-difluorobenzoyl]-1H-pyrrolo[2,3-b]pyridine] | 0.083 | 31
9 | CCN(C)S(=O)(=O)Nc1ccc(F)c(C(=O)c2c[nH]c3ncc(-c4ccc(N5CCN(CCCC(=O)N6CCC(c7ccc(OC8CCC(=O)NC8=O)cc7)CC6)CC5)nc4)cc23)c1F (stereo not drawn) [Example A5, 5-[6-[4-[4-[4-[4-(2,6-Dioxopiperidin-3-yl)oxyphenyl]piperidin-1-yl]-4-oxobutyl]piperazin-1-yl]pyridin-3-yl]-3-[3-[[ethyl(methyl)sulfamoyl]amino]-2,6-difluorobenzoyl]-1H-pyrrolo[2,3-b]pyridine] | 0.104 | 34
10 | CCN(C)S(=O)(=O)Nc1ccc(F)c(C(=O)c2c[nH]c3ncc(-c4cnc(N5CCN(C(=O)CN6CCC(c7ccc(OC8CCC(=O)NC8=O)cc7)CC6)CC5)nc4)cc23)c1F (stereo not drawn) [Example A6, 5-[2-[4-[2-[4-[4-(2,6-Dioxopiperidin-3-yl)oxyphenyl]piperidin-1-yl]acetyl]piperazin-1-yl]pyrimidin-5-yl]-3-[3-[[ethyl(methyl)sulfamoyl]amino]-2,6-difluorobenzoyl]-1H-pyrrolo[2,3-b]pyridine] | 0.015 | 13
11 | CCN(C)S(=O)(=O)Nc1ccc(F)c(C(=O)c2c[nH]c3ncc(-c4ccc(CN5CCN(CC(=O)N6CCC(c7ccc(NC8CCC(=O)NC8=O)cc7)CC6)CC5)nc4)cc23)c1F (stereo not drawn) [Example A7, 5-[6-[[4-[2-[4-[4-[(2,6-Dioxopiperidin-3-yl)amino]phenyl]piperidin-1-yl]-2-oxoethyl]piperazin-1-yl]methyl]pyridin-3-yl]-3-[3-[[ethyl(methyl)sulfamoyl]amino]-2,6-difluorobenzoyl]-1H-pyrrolo[2,3-b]pyridine;2,2,2-trifluoroacetic acid] | 0.0168 | 12.9
12 | CCN(C)S(=O)(=O)Nc1ccc(F)c(C(=O)c2c[nH]c3ncc(-c4ccc(N5CCN(C(=O)CN6CCC(c7ccc(NC8CCC(=O)NC8=O)cc7)CC6)CC5)nc4)cc23)c1F (stereo not drawn) [Example A8, 5-[6-[4-[2-[4-[4-[(2,6-Dioxopiperidin-3-yl)amino]phenyl]piperidin-1-yl]acetyl]piperazin-1-yl]pyridin-3-yl]-3-[3-[[ethyl(methyl)sulfamoyl]amino]-2,6-difluorobenzoyl]-1H-pyrrolo[2,3-b]pyridine] | 0.00818 | 9.42
13 | CCN(C)S(=O)(=O)Nc1ccc(F)c(C(=O)c2c[nH]c3ncc(-c4ccc(CN5CCN(C(=O)CN6CCC(c7ccc(NC8CCC(=O)NC8=O)cc7)CC6)CC5)nc4)cc23)c1F (stereo not drawn) [Example A9, 5-[6-[[4-[2-[4-[4-[(2,6-Dioxopiperidin-3-yl)amino]phenyl]piperidin-1-yl]acetyl]piperazin-1-yl]methyl]pyridin-3-yl]-3-[3-[[ethyl(methyl)sulfamoyl]amino]-2,6-difluorobenzoyl]-1H-pyrrolo[2,3-b]pyridine] | 0.03 | 14
14 | CCN(C)S(=O)(=O)Nc1ccc(F)c(C(=O)c2c[nH]c3ncc(-c4cnc(N5CCN(C(=O)CN6CCC(c7ccc(NC8CCC(=O)NC8=O)cc7)CC6)CC5)nc4)cc23)c1F (stereo not drawn) [Example A10, 5-[2-[4-[2-[4-[4-[(2,6-Dioxopiperidin-3-yl)amino]phenyl]piperidin-1-yl]acetyl]piperazin-1-yl]pyrimidin-5-yl]-3-[3-[[ethyl(methyl)sulfamoyl]amino]-2,6-difluorobenzoyl]-1H-pyrrolo[2,3-b]pyridine] | 0.003 | 8
15 | CCN(C)S(=O)(=O)Nc1ccc(F)c(C(=O)c2c[nH]c3ncc(-c4ccc(N5CCN(C(=O)CN6CCN(c7ccc(NC8CCC(=O)NC8=O)cc7)CC6)CC5)nc4)cc23)c1F (stereo not drawn) [Example A11, 5-[6-[4-[2-[4-[4-[(2,6-Dioxopiperidin-3-yl)amino]phenyl]piperazin-1-yl]acetyl]piperazin-1-yl]pyridin-3-yl]-3-[3-[[ethyl(methyl)sulfamoyl]amino]-2,6-difluorobenzoyl]-1H-pyrrolo[2,3-b]pyridine] | 0.00671 | 11.6
16 | CCN(C)S(=O)(=O)Nc1ccc(F)c(C(=O)c2c[nH]c3ncc(-c4ccc(CN5CCN(C(=O)CN6CCN(c7ccc(NC8CCC(=O)NC8=O)cc7)CC6)CC5)nc4)cc23)c1F (stereo not drawn) [Example A12, 5-[6-[[4-[2-[4-[4-[(2,6-Dioxopiperidin-3-yl)amino]phenyl]piperazin-1-yl]acetyl]piperazin-1-yl]methyl]pyridin-3-yl]-3-[3-[[ethyl(methyl)sulfamoyl]amino]-2,6-difluorobenzoyl]-1H-pyrrolo[2,3-b]pyridine] | 0.074 | 24
17 | CCN(C)S(=O)(=O)Nc1ccc(F)c(C(=O)c2c[nH]c3ncc(-c4ccc(CN5CCN(C6CCN(C(=O)CN7CCC(c8ccc(NC9CCC(=O)NC9=O)cc8)CC7)CC6)CC5)cc4)cc23)c1F (stereo not drawn) [Example A13, 5-[4-[[4-[1-[2-[4-[4-[(2,6-Dioxopiperidin-3-yl)amino]phenyl]piperidin-1-yl]acetyl]piperidin-4-yl]piperazin-1-yl]methyl]phenyl]-3-[3-[[ethyl(methyl)sulfamoyl]amino]-2,6-difluorobenzoyl]-1H-pyrrolo[2,3-b]pyridine] | 0.091 | 23
18 | CCN(C)S(=O)(=O)Nc1ccc(F)c(C(=O)c2c[nH]c3ncc(-c4ccc(N5CCN(C(=O)CN6CCC(c7ccc(OC8CCC(=O)NC8=O)cc7)CC6)CC5)cc4)cc23)c1F (stereo not drawn) [Example A14, 5-[4-[4-[2-[4-[4-(2,6-Dioxopiperidin-3-yl)oxyphenyl]piperidin-1-yl]acetyl]piperazin-1-yl]phenyl]-3-[3-[[ethyl(methyl)sulfamoyl]amino]-2,6-difluorobenzoyl]-1H-pyrrolo[2,3-b]pyridine] | 0.0106 | 9.74
